Test results reported in PubChem BioAssay (NCI).
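Test compounds were applied to cells in 96-well plates for 48 hours at 5 doses. The concentration for 50% growth inhibition is given as GI50. TGI: concentration producing complete growth inhibition.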

Tests used:
Assay in all cases: NCI tumour cell line growth inhibition, 48 h
ACHN renal = system: ACHN renal
U251 CNS = system: U251 CNS
SK-MEL-2 melanoma = system: SK-MEL-2 melanoma
HS 578T breast = system: HS 578T breast
786-0 renal = system: 786-0 renal
CAKI-1 renal = system: CAKI-1 renal
CCRF-CEM leukemia = system: CCRF-CEM leukemia
NCI/ADR-RES ovarian = system: NCI/ADR-RES ovarian
HOP-62 NSCLC = system: HOP-62 NSCLC
HOP-92 NSCLC = system: HOP-92 NSCLC

Compound | GI50 (ACHN renal) | TGI (ACHN renal) | GI50 (U251 CNS) | TGI (U251 CNS) | GI50 (SK-MEL-2 melanoma) | TGI (SK-MEL-2 melanoma) | GI50 (HS 578T breast) | TGI (HS 578T breast) | GI50 (786-0 renal) | TGI (786-0 renal) | GI50 (CAKI-1 renal) | TGI (CAKI-1 renal) | GI50 (CCRF-CEM leukemia) | GI50 (NCI/ADR-RES ovarian) | TGI (NCI/ADR-RES ovarian) | GI50 (HOP-62 NSCLC) | TGI (HOP-62 NSCLC) | GI50 (HOP-92 NSCLC) | TGI (HOP-92 NSCLC) | TGI (CCRF-CEM leukemia)
CNC(=O)c1c(NC(=O)c2ccc(C(F)(F)F)cc2)sc2c1CCC(=O)C2 | 0.322 µM | 1.9 µM | 0.314 µM | 2.06 µM | 1.36 µM | 5.46 µM | 0.774 µM | 13.2 µM | 0.415 µM | 15.1 µM | 0.388 µM | 1.88 µM | 0.155 µM | 0.662 µM | 3.74 µM | 2.42 µM | 10.9 µM | 0.256 µM | 2.15 µM | 
Cc1ccc(S(=O)(=O)Oc2ccc([N+](=O)[O-])cc2[N+](=O)[O-])cc1 | 7.64 µM | 22.5 µM | 3.83 µM | 14.5 µM | 4.31 µM | 16.6 µM | 21.5 µM | > 100 µM | 3.83 µM | 14.6 µM | 2.03 µM | 4.27 µM | 0.6 µM | 5.31 µM | 38 µM | 13.6 µM | 30.5 µM | 4.34 µM | 21.7 µM | 15.7 µM
Cc1cc(C(=O)Nc2nc3cccc(Cl)c3n2[C@@H]2CCCCN(C(=O)/C=C/CN(C)C)C2)ccn1 | 0.406 µM | 16.3 µM | 11.2 µM | 26 µM | 17.5 µM | 34.2 µM | 9.11 µM | 37.3 µM | 3.78 µM | 21.6 µM | 0.58 µM | 17.2 µM | 12.5 µM | 5.37 µM | 49 µM | 12.5 µM | 27.4 µM | 6.94 µM | 32.2 µM | 56.2 µM
CNC1C(O)C(OC2C(N)CC(N)C(OC3OC(CN)=CCC3N)C2O)OCC1(C)O (stereo not drawn) |  | > 100 µM |  | > 100 µM |  | > 100 µM |  | > 100 µM |  | > 100 µM |  | > 100 µM |  |  | > 100 µM |  | > 100 µM |  | > 100 µM | > 100 µM
COc1ccccc1/C=C/C(=O)c1c(O)cc2occc2c1OC | 30 µM | > 100 µM | 18.9 µM | > 100 µM | > 100 µM | > 100 µM | 38.2 µM | > 100 µM | 35.3 µM | 98.4 µM | > 100 µM | > 100 µM | 9.72 µM | 29.6 µM | > 100 µM | 19.3 µM | 43.9 µM | 2.98 µM | 26.6 µM | > 100 µM
O=C(NCCc1ccccc1)C(c1ccccc1)(c1ccccc1)c1ccccc1 | 3.13 µM | 9.35 µM | 2.93 µM | 12.4 µM | 7.04 µM | 29.8 µM | 3.88 µM | 23.7 µM | 5.43 µM | > 100 µM | 4.16 µM | 26.1 µM | 40 µM | 2.23 µM | 6.59 µM | 7.1 µM | > 100 µM | > 100 µM | > 100 µM | > 100 µM
CN[C@@H](C)C(=O)N[C@H]1CN(C(=O)CC(C)C)CC[C@H]2CC[C@@H](C(=O)NC(c3ccccc3)c3ccccc3)N2C1=O | > 100 µM | > 100 µM | > 100 µM | > 100 µM | 43.7 µM | > 100 µM | > 81.7 µM | > 100 µM | > 100 µM | > 100 µM | > 100 µM | > 100 µM | > 100 µM | > 100 µM | > 100 µM | > 90.9 µM | > 100 µM |  | > 45.4 µM | > 100 µM
COc1cc2c(F)nccc2cc1C(=O)N[C@@H](c1ccc(F)c(Cl)c1)[C@@H]1C[C@@H](O)CN1 | 9.59 µM | 22.3 µM | 1.49 µM | 17.8 µM | 11.4 µM | 25.2 µM | 0.0715 µM | 2.41 µM | 0.076 µM | 11.5 µM | 0.355 µM | 14.6 µM | 0.299 µM | 14 µM | 47 µM | 7.09 µM | 25.3 µM | 0.291 µM | 7.83 µM | > 42 µM
Cc1ccc2c(c1)C(C)Cc1c(ncnc1-n1cnc3cc(C)ccc31)N2C (stereo not drawn) | 0.0459 µM | 12 µM | 0.0362 µM | 12.1 µM | 0.0419 µM | 15.8 µM | 0.0459 µM | 23 µM | 0.0371 µM | 12.5 µM | 0.0407 µM | 12.4 µM | 0.0362 µM | 0.0374 µM | 54.3 µM | 0.0352 µM | 15.6 µM | 0.301 µM | 5.21 µM | 17.6 µM
CCCCCCCCCCCCNC(=O)[C@H]1CSC(c2cc3ccccc3s2)N1 (stereo partly drawn) | 4.9 µM | 9.29 µM | 2.61 µM | 7.19 µM | 1.96 µM | 6.49 µM | 0.777 µM | 1.86 µM | 4.6 µM | 9.11 µM | 2.09 µM | 6.4 µM | 0.725 µM | 1.66 µM | 6.83 µM | 0.732 µM | 1.55 µM | 5.41 µM | 10.5 µM | 1.68 µM
C/C1=C/C(=O)O[C@@H]2C[C@@H](CC[C@H](C)/C=C\C=C\CC1)O[C@@](O)([C@@H]1CSC(=O)N1CO)C2 | 0.0403 µM | > 100 µM | 0.0992 µM | 13.6 µM | 0.0796 µM | 34.9 µM | 0.0174 µM | 0.0606 µM | 0.137 µM | 12.3 µM | 0.0203 µM | 0.382 µM | 0.0872 µM | 1.2 µM | 46.1 µM | 0.0254 µM | 0.176 µM | 0.0165 µM | 0.0614 µM | > 41.4 µM
Cc1nc2ccccn2c1NC(=O)NNC(=S)Nc1ccc(Br)cc1 | 37.9 µM | > 100 µM | 32.1 µM | > 100 µM | 77.8 µM | > 100 µM | 54.8 µM | > 100 µM | 41.7 µM | > 100 µM | 29.6 µM | > 100 µM | 40.1 µM | 24.5 µM | 58 µM | 35.2 µM | > 100 µM | 49.4 µM | > 100 µM | > 100 µM
COc1ccc(-c2nsc3c2NC(=O)CC3c2ccc(F)cc2)cc1 (stereo not drawn) | 6.73 µM | > 100 µM | 4 µM | > 100 µM | 3.22 µM | 12 µM | 4.48 µM | > 73.8 µM | 15.2 µM | > 100 µM | 2.28 µM | 18.4 µM | 5.27 µM | 2.57 µM | > 26.9 µM | 7.06 µM | 49 µM | 1.77 µM | 23.7 µM | > 100 µM
